Laboratory results taken from patent publication US6544511B2, “Plant disease control agent” (Akatsuka Orchid Co., Ltd., priority 2000, dated 2003).
Numbered stars: 1 amine (or outer) side, 2 acyl side, 3 side chain; on linkers, the order of the positions; unused ones are H or OH. Bridge positions count the residues as written; N and C are the ends. Square brackets hold non-standard residues; d marks the D form. Peptide text beside a SMILES is read from it. I, II: the chains in the order shown. Actinocin(9to1) = Cc1c2oc3c(C)ccc(C(=O)[*:1])c3nc-2c(C(=O)[*:2])c(N)c1=O; NMeV = CN[C@H](C(=O)O)C(C)C; Sar = CNCC(=O)O

Key:
[1] = tested on: Phytophthora cinnamomi MAFF No. 305565; experiment: Antibiotic sensitivity test for pathogenic filamentous fungi (mycelial mat diameter); format: cell-based; conditions: for Sensitivity of Phytophthora cinnamomi against antibiotic: 0.1, 1, 10 μg/ml in potato sucrose agar medium, 3 days (FIGS. 10, 11)
Procedure: (§1) Pathogenic filamentous fungi were tested for their sensitivity against antibiotics belonging to actinomycin and polyen anti-fungal antibiotics shown to be produced by R-5 strain. First, actinomycin D or amphotericin B (polyen anti-fungal antibiotic) was dissolved to concentrations of 0.1, 1, and 10 μg/mil in potato sucrose agar medium cooled to about 45° C., and solidified. Mycelial disks with a diameter of 6 mm, which had been stamped out from mycelial mats of Phytophthora cinnamomi MAFF No. 305565 or Pestalotiopsis sydowiana MAFF No. 305755 pre-cultured for 7 days on potato sucrose agar medium, were inoculated onto the potato sucrose agar medium solidified as described above. Each diameter of the mycelial mats was measured with time for 3 days.

[2] = tested on: Pestalotiopsis sydowiana MAFF No. 305755; experiment: as above; format: cell-based; conditions: for Sensitivity of Pestalotiopsis sydowiana against antibiotic: 0.1, 1, 10 μg/ml in potato sucrose agar medium, 3 days (FIGS. 12, 13)
Procedure: as §1

Structure (SMILES) | Growth of the mycelial mat of Phytophthora cinnamomi ([1]; 10 μg/ml) | Sensitivity of Phytophthora cinnamomi against antibiotic [1] | Growth of the mycelia of Pestalotiopsis sydowiana ([2]; 10 μg/ml) | Sensitivity of Pestalotiopsis sydowiana against antibiotic [2] | Growth of the mycelia of Pestalotiopsis sydowiana ([2]; 0.1 μg/ml)
Cc1c2oc3c(C)ccc(C(=O)N[C@@H]4C(=O)N[C@H](C(C)C)C(=O)N5CCC[C@H]5C(=O)N(C)CC(=O)N(C)[C@@H](C(C)C)C(=O)O[C@@H]4C)c3nc-2c(C(=O)N[C@@H]2C(=O)N[C@H](C(C)C)C(=O)N3CCC[C@H]3C(=O)N(C)CC(=O)N(C)[C@@H](C(C)C)C(=O)O[C@@H]2C)c(N)c1=O [actinomycin D] (I: T[dV]P[Sar][NMeV] / II: T[dV]P[Sar][NMeV]; ester I:1-I:C, II:1-II:C; linker I:N-II:N via Actinocin(9to1)) | completely stopped the growth | showed sensitivity | significantly suppressed the growth | weak sensitivity | –
C[C@@H]1[C@H](O)[C@@H](C)/C=C/C=C/C=C/C=C/C=C/C=C/C=C/[C@H](O[C@@H]2O[C@H](C)[C@@H](O)[C@H](N)[C@@H]2O)C[C@@H]2O[C@](O)(C[C@@H](O)C[C@@H](O)[C@H](O)CC[C@@H](O)C[C@@H](O)CC(=O)O[C@H]1C)C[C@H](O)[C@H]2C(=O)O [amphotericin B] | – | almost no sensitivity | – | high sensitivity | completely suppressed the growth of the mycelia
